Test results published in the NIST ThermoML archive (doi:10.1021/je100765j).

Test: xn = mol fraction of the nth substance listed
Settings: 101 kPa, Liquid; for speed of sound: Sing-around technique in a fixed-path interferometer

CC(C)(C)Cl [2-chloro-2-methylpropane] + CC(C)OC(C)C
Settings	mass density [kg/m3]	speed of sound [m/s]
283.15 K, x1 = 0.049	738.51	1064.9
283.15 K, x1 = 0.0996	743.477	1064.1
283.15 K, x1 = 0.1991	753.625	1062.7
283.15 K, x1 = 0.3212	766.738	1060.7
283.15 K, x1 = 0.4189	777.752	1059.1
283.15 K, x1 = 0.5148	789.053	1057.4
283.15 K, x1 = 0.6213	802.211	1055.4
283.15 K, x1 = 0.7152	814.386	1053.5
283.15 K, x1 = 0.8138	827.84	1051.4
283.15 K, x1 = 0.9079	841.342	1049.2
283.15 K, x1 = 0.9552	848.393	1048.1
288.15 K, x1 = 0.049	733.338	1042.5
288.15 K, x1 = 0.0996	738.271	1041.8
288.15 K, x1 = 0.1991	748.35	1040.4
288.15 K, x1 = 0.3212	761.373	1038.5
288.15 K, x1 = 0.4189	772.305	1037
288.15 K, x1 = 0.5148	783.527	1035.4
288.15 K, x1 = 0.6213	796.59	1033.5
288.15 K, x1 = 0.7152	808.683	1031.8
288.15 K, x1 = 0.8138	822.038	1029.8
288.15 K, x1 = 0.9079	835.444	1027.7
288.15 K, x1 = 0.9552	842.442	1026.6
293.15 K, x1 = 0.049	728.121	1020
293.15 K, x1 = 0.0996	733.024	1019.4
293.15 K, x1 = 0.1991	743.024	1018
293.15 K, x1 = 0.3212	755.959	1016.3
293.15 K, x1 = 0.4189	766.815	1014.9
293.15 K, x1 = 0.5148	777.959	1013.4
293.15 K, x1 = 0.6213	790.929	1011.6
293.15 K, x1 = 0.7152	802.935	1010
293.15 K, x1 = 0.8138	816.189	1008.1
293.15 K, x1 = 0.9079	829.491	1006.1
293.15 K, x1 = 0.9552	836.437	1005.1
298.15 K, x1 = 0.049	722.867	997.71
298.15 K, x1 = 0.0996	727.738	997.09
298.15 K, x1 = 0.1991	737.666	995.89
298.15 K, x1 = 0.3212	750.506	994.32
298.15 K, x1 = 0.4189	761.286	993.03
298.15 K, x1 = 0.5148	772.351	991.68
298.15 K, x1 = 0.6213	785.228	990.11
298.15 K, x1 = 0.7152	797.145	988.62
298.15 K, x1 = 0.8138	810.301	986.91
298.15 K, x1 = 0.9079	823.502	985.13
298.15 K, x1 = 0.9552	830.397	984.18
303.15 K, x1 = 0.049	717.578	975.46
303.15 K, x1 = 0.0996	722.411	974.84
303.15 K, x1 = 0.1991	732.264	973.65
303.15 K, x1 = 0.3212	745.015	972.13
303.15 K, x1 = 0.4189	755.716	970.88
303.15 K, x1 = 0.5148	766.702	969.59
303.15 K, x1 = 0.6213	779.48	968.1
303.15 K, x1 = 0.7152	791.311	966.67
303.15 K, x1 = 0.8138	804.371	965.04
303.15 K, x1 = 0.9079	817.469	963.34
303.15 K, x1 = 0.9552	824.312	962.38
308.15 K, x1 = 0.049	712.24	953.42
308.15 K, x1 = 0.0996	717.041	952.84
308.15 K, x1 = 0.1991	726.821	951.71
308.15 K, x1 = 0.3212	739.479	950.28
308.15 K, x1 = 0.4189	750.102	949.13
308.15 K, x1 = 0.5148	761.005	947.93
308.15 K, x1 = 0.6213	773.688	946.56
308.15 K, x1 = 0.7152	785.433	945.25
308.15 K, x1 = 0.8138	798.394	943.74
308.15 K, x1 = 0.9079	811.393	942.17
308.15 K, x1 = 0.9552	818.179	941.27
313.15 K, x1 = 0.049	706.86	931.51
313.15 K, x1 = 0.0996	711.627	930.96
313.15 K, x1 = 0.1991	721.331	929.87
313.15 K, x1 = 0.3212	733.893	928.52
313.15 K, x1 = 0.4189	744.44	927.44
313.15 K, x1 = 0.5148	755.257	926.35
313.15 K, x1 = 0.6213	767.848	925.1
313.15 K, x1 = 0.7152	779.502	923.88
313.15 K, x1 = 0.8138	792.364	922.47
313.15 K, x1 = 0.9079	805.264	921
313.15 K, x1 = 0.9552	811.999	920.15
